Results on eleven molecules are retold here after US5493027A, “Anticonvulsive agents and uses thereof” (priority 1993, dated 1996).

Where two headings read alike, the source gives them in different places. A value given as a limit tells only on which side of the number the result lay.

Data set [1] concerns anticonvulsant activity. The following applies: Wong et al., 1986; Singh et al., 1990; cited from earlier work.
A short description of data set [2]: Rotorod test for neurological deficit (TOX) in mice. The format is in vivo, male Carworth Farms number-1 mice. The following applies: mouse, in vivo, ip. The protocol: (§1) Compounds were screened for anticonvulsant activity in male Carworth Farms number-1 mice. Test solutions of all compounds were prepared in 30% polyethylene glycol 400, and animals were dosed intraperitoneally at either 30 minutes or 4 hours prior to testing. Testing was conducted on four mice at each of three dose levels (30, 100, and 300 mg/kg).
(§2) Animals were also tested for neurological deficit using the rotorod. After treatment, the animal was placed on a 1 inch diameter knurled plastic rod rotating at 6 rpm. Neurologic deficit was defined as the failure of the animal to remain on the rod for 1 minute.
(§3) Biological testing--Compounds were screened for anticonvulsant activity in male Carworth Farms number-one mice. Test solutions of all compounds were prepared in 30% polyethylene glycol 400, and animals were dosed intraperitoneally at either 30 min or 4 h prior to testing. Testing was conducted on four mice at each of three dose levels (30, 100, and 300 mg/kg).
(§4) Animals were also tested for neurological deficit using the rotorod. After treatment, the animal was placed on a 1 inch diameter knurled plastic rod rotating at 6 rpm. Neurologic deficit was defined as the failure of the animal to remain on the rod for 1 min.
A general note: Falling from the rotarod earlier than controls is read as motor impairment.

Data set [3] relates to pentylenetetrazole (Metrazol) induced seizures. Put plainly: Subcutaneous pentylenetetrazole (Metrazol) seizure threshold test (Met) in mice. Type of data set: in vivo, male Carworth Farms number-1 mice. The following applies: for minimal effective dose: Mus musculus, ip; for Sc MET / Sc MET repeated: protected: mice i.p.; for Sc MET repeated: protected: repeat. The protocol:
as §1
(§5) In the subcutaneous pentylenetetrazole (Metrazol) seizure threshold test(met), 85 mg/kg pentylenetetrazole was administered as a 0.5% solution in the posterior midline. Protection in this test was defined as a failure to observe a single episode of clonic spasms of at least 5 s duration during the 30 minute period following administration of the convulsive agent.
as §3
(§6) In the subcutaneous pentylenetetrazole (Metrazol) seizure threshold test (Met), 85 mg/kg pentylenetetrazole was administered as a 0.5% solution in the posterior midline. Protection in this test was defined as a failure to observe a single episode of clonic spasms of at least 5 s duration during the 30 min period following administration of the convulsive agent.

The test system of data set [4] is quinolinic acid induced seizures. The following applies: intracerebroventricular, CD-1 mice (Baron et al., 1990); cited from earlier work.
For data set [5], the system named is neurological deficit (rotorod). Put plainly: Rotorod test for neurological deficit (TOX) in mice. The format is in vivo, male Carworth Farms number-1 mice. The following applies: mouse, in vivo. The method, then: as §1, §2, §3, §4
Data set [6] has as its target T1, strychnine-insensitive glycine binding site of the NMDA receptor (Rattus norvegicus, UniProt P35439).
T1 construct: Membranes were prepared from rat cerebral cortex; from tissue; host or cells: rat cerebral cortex, "buffy coat" membranes
Put plainly: Inhibition of [3H]glycine specific binding (strychnine-insensitive) in rat cerebral cortex membranes. The following applies: 10 uM compound. The protocol: Binding Studies--Inhibition of [^3 H]glycine specific binding was assayed using [^3 H]glycine (43 Ci/mmol) obtained from DuPont-New England Nuclear. […] Membranes were prepared from rat cerebral cortex and assays were conducted in Na-free 50 mM HEPES (Sigma) at pH 7.4. Membranes were incubated in a final volume of 1 ml with 20 nM [^3 H]glycine and a 10 uM concentration of the test compound. Although experience has shown that [^3 H]glycine binding in this preparation is strychnine insensitive, 10 uM strychnine was added to the assay mixtures to eliminate the possibility that any effects studied could be mediated through a strychnine-sensitive process. Incubation was continued for 20 min at 4° C. Non-specific binding was determined in the presence of 1 mM glycine and subtracted. All conditions were tested in triplicate in 3 different assays. Binding was terminated using a Brandel M-24C cell harvester employing rapid filtration through GF/C glass fiber filters pre-soaked in 1% (V/V) polyethylenimine. Filters were washed twice with 5 ml buffer cooled to 4° C. Radioactivity bound to the filters was determined with a Beckman LS-500OTD liquid scintillation counter.

The subject of data set [7] is seizures induced by electroshock and pentylenetetrazole. Put plainly: Anticonvulsant testing, overall (MES and Met). The format is in vivo, male Carworth Farms number-1 mice. The following applies: for minimal effective dose: Mus musculus, ip, read-out: dose level with anticonvulsant activity (test not given); for minimal effective dose / anticonvulsant activity (words): mice, intraperitoneal; for CLASS: Phase I Identification: mice, i.p., classes not defined in the patent. The protocol: as §1
(§7) Maximal electroshock seizures (MES) were elicited with a 60 cycle alternatiing current of 50-mA intensity (five to seven times that necessary to evoke minimal electroshock threshold seizures). Current was delivered via corneal electrodes for 0.2 s. A drop of 0.9% saline was instilled in the eye prior to application of electrodes. Abolition of the hindlimb tonic extension component of the seizure was defined as protection in the MES test.
as §5, §3
(§8) Maximal electroshock seizures (MES) were elicited with a 60 cycle alternating current of 50-mA intensity (five to seven times that necessary to evoke minimal electroshock threshold seizures). Current was delivered via corneal electrodes for 0.2 s. A drop of 0.9% saline was instilled in the eye prior to application of electrodes. Abolition of the hindlimb tonic extension component of the seizure was defined as protection in the MES test.
as §6

Data set [8] can be described thus: Solubility in aqueous solutions and in chloroform and other non-polar solvents. Type of data set: physicochemical.
Data set [9] has as its system maximal electroshock seizures (MES). Briefly: animal or person. The format is in vivo, male Carworth Farms number-1 mice. The following applies: for MES: mice i.p.; for minimal effective dose: Mus musculus, ip. The method, then:
as §1, §7, §3, §8

The test system of data set [10] is quisqualate receptor. The following applies: cited from earlier work.
The subject of data set [11] is inhibitory (strychnine-sensitive) glycine receptors in the spinal cord. The following applies: White et al. 1989; Huettner 1989; cited from earlier work.
Data set [12] concerns NMDA receptor. The following applies: cited from earlier work.
The test system of data set [13] is kainate receptor. The following applies: cited from earlier work.
Where [14] appears, read: Table 7, value without parentheses = effective dose, read-out: Effective Intraperitoneal Dose, Met.
The mark [15] stands for this setting: mice, intraperitoneal, read-out: dose active in Met test.
Where [16] appears, read: mice, intraperitoneal, read-out: dose active in MES test.
Setting [17] is: Table 7, value without parentheses = effective dose, read-out: Effective Intraperitoneal Dose, MES.

For the molecule `C[C@]12N[C@H](Cc3ccccc31)c1ccccc12` [MK-801], the “anticonvulsant activity (words, literature)” value in [1] was “demonstrate anticonvulsant activity”.
Take `O=C(O)c1cc(O)c2c(Cl)cc(Cl)cc2n1` [5,7-di-Cl-kyn-2-COOH]: the NOAEL (as a rule, the highest tested level that showed no adverse finding) in data set [2] amounted to 300 mg/kg. In addition, the minimal effective dose in data set [3] (setting [14]) and in [3] (setting [15]) was 300 mg/kg each time. Further, in data set [3] (mice, intraperitoneal), the “Met activity” value is given as “mild Met activity”. Also, the “protection against quinolinic acid induced seizures” value in data set [4] was “protect against quinolinic acid induced seizures”.
In turn, `Cc1c(Cl)ccc2c(O)cc(C(=O)O)nc12` [7-Cl-8-methyl-kyn-2-COOH] displayed an NOAEL in [2] of 300 mg/kg. Besides, the minimal effective dose in data set [3] (setting [14]) and in data set [3] (setting [15]) was 300 mg/kg throughout.
For `CCOC(=O)c1cc(NC)c2c(Cl)cc(Cl)cc2n1` [ethyl 4-methylamino-5,7-dichloro-2-quinoline carboxylate], the “Sc MET repeated: toxic” value in data set [5] (30 mg/kg), in [5] (100 mg/kg) and in data set [5] (300 mg/kg) was 0/4 throughout. The molecule also displayed an NOAEL in [2] of 300 mg/kg. Further, the “[3H]glycine binding inhibition” value in [6] is on record as “poor binding inhibition”. For the same molecule, the “Sc MET” value in [3] (30 minutes, 30 mg/kg) is given as 1/1; in data set [3] (30 minutes, 100 mg/kg), 1/1; in [3] (30 minutes, 300 mg/kg), 1/1; in data set [3] (4 hours, 30 mg/kg), 0/1; in data set [3] (4 hours, 100 mg/kg) it was 0/1; in data set [3] (4 hours, 300 mg/kg), 0/1. In addition, the minimal effective dose in [3] (setting [14]) is 30 mg/kg; in data set [3] (setting [15]), 30 mg/kg; in data set [7], at most 100 mg/kg; in [9] (setting [16]) it was 30 mg/kg. Also, the “Sc MET repeated: protected” value in data set [3] (30 minutes, 30 mg/kg) is reported as 1/4; in data set [3] (30 minutes, 100 mg/kg), 2/4; in data set [3] (30 minutes, 300 mg/kg), 4/4. The same molecule registered a CLASS in data set [7] of 1. The “anticonvulsant activity (words)” value is given as “high anticonvulsant activity” in data set [7], “most potent anticonvulsant” in [7] (listed as ethyl 4-methylamino-5,7-dichloro-2-quinoline carboxylate) and “particularly effective anticonvulsant agent” in data set [7] (listed as ethyl-4-methylamino-5,7-dichloro-2-quinoline carboxylate). In addition, the “solubility in chloroform and other non-polar solvents” value in [8] is “appreciably soluble in chloroform and other non-polar solvents”. For the same molecule, the MES was 0/1 in data set [9] (30 minutes, 30 mg/kg); 0/3 in [9] (30 minutes, 100 mg/kg); 0/1 in data set [9] (30 minutes, 300 mg/kg); 0/1 in data set [9] (4 hours, 30 mg/kg); 0/3 in data set [9] (4 hours, 100 mg/kg); 0/1 in [9] (4 hours, 300 mg/kg).
For `O=C(O)c1cc(O)c2ccccc2n1` [kynurenic acid, 4-hydroxy-2-quinolinecarboxylic acid], the “excitatory amino acid antagonist activity at quisqualate receptors” value in data set [10] was “nonselective excitatory amino acid antagonist”. In data set [11], the “activity at strychnine-sensitive sites” value is “inactive”. The “excitatory amino acid antagonist activity at NMDA receptors” value in data set [12] is “nonselective excitatory amino acid antagonist”. Also, the “excitatory amino acid antagonist activity at kainate receptors” value in data set [13] is recorded as “nonselective excitatory amino acid antagonist”.
As to `O=C(O)c1cc2ccccc2[nH]1` [indole-2-carboxylic acid], in [11], the “activity at strychnine-sensitive sites” value is “inactive”.
As to `CNc1cc(C(=O)O)nc2cc(Cl)cc(Cl)c12` [5,7-di-Cl-4-methylamino-kyn-2-COOH, 4-methylamino-5,7-dichloro-2-quinoline carboxylic acid], in [5] (ip), the “Effective Intraperitoneal Dose, Rotorod” value is 100 mg/kg. Further, in data set [5] (ip), the “dose causing neurological deficit on rotorod” value worked out at 300 mg/kg. In addition, the TOX comment result in [5] (ip, 300 mg/kg) is on record as “Unable to hold onto rotorod”. Further, in data set [6], the “[3H]glycine binding inhibition” value is “best inhibitor of [^3 H]glycine binding”. For the same molecule, the “Sc MET” value in [3] (30 minutes, 30 mg/kg) is 0/2; in data set [3] (30 minutes, 100 mg/kg), 0/1; in [3] (30 minutes, 300 mg/kg), 1/1; in [3] (4 hours, 30 mg/kg), 0/1; in data set [3] (4 hours, 100 mg/kg), 0/1; in [3] (4 hours, 300 mg/kg), 0/1. Besides, the minimal effective dose is 300 mg/kg in data set [3] (setting [14]), at most 100 mg/kg in [7], 100 mg/kg in [9] (setting [17]) and 100 mg/kg in data set [9] (setting [16]). Moreover, in data set [7], the CLASS was 2. Further, the MES is 0/1 in data set [9] (30 minutes, 30 mg/kg); 0/3 in [9] (30 minutes, 100 mg/kg); 1/1 in [9] (30 minutes, 300 mg/kg); 0/1 in [9] (4 hours, 30 mg/kg); 0/3 in data set [9] (4 hours, 100 mg/kg); 0/1 in [9] (4 hours, 300 mg/kg).
The molecule `CCCCOC(=O)c1cc2cc(F)ccc2[nH]1` [5-F-indole-2-butyl ester, butyl ester of 5-fluoro-indole-2-carboxylic acid] registered an NOAEL in [2] of 300 mg/kg. In [6], the “[3H]glycine binding inhibition” value is “binding characteristics were similar to those of the ethyl ester”. For the same molecule, the minimal effective dose in [3] (setting [14]), in data set [3] (setting [15]) and in data set [7] was 300 mg/kg in each case.
`CCOC(=O)c1cc(O)c2ccc(Cl)cc2n1` [7-Cl-kyn-2-ethyl ester]: in data set [2], the NOAEL is 300 mg/kg. The minimal effective dose in [3] (setting [14]) and in data set [3] (setting [15]) was 300 mg/kg each time.
On to `CCOC(=O)c1cc(O)c2c(F)cc(F)cc2n1` [5,7-di-F-kyn-2-ethyl ester], for which the NOAEL in data set [2] worked out at 300 mg/kg. In data set [3] (Table 7, value in parentheses = maximum ineffective dose), the “(Maximum Ineffective) Intraperitoneal Dose, Met” value was determined as 300 mg/kg. For the same molecule, the minimal effective dose in data set [9] (setting [17]) and in data set [9] (setting [16]) was 300 mg/kg each time. For the same molecule, the “MES activity” value in data set [9] (mice, intraperitoneal) is listed as “MES activity at this dose level”.
In the case of `CCOC(=O)c1cc2cc(F)ccc2[nH]1` [5-F-indole-2-ethyl ester, 5-fluoro-indole-2-ethyl carboxylate], the NOAEL in data set [2] was 300 mg/kg. Further, the minimal effective dose in [3] (setting [14]) worked out at 300 mg/kg; in data set [3] (setting [15]), 300 mg/kg; in data set [9] (setting [17]), 100 mg/kg; in data set [9] (setting [16]) it was 100 mg/kg.
